Experimental data reported in ChEMBL document CHEMBL1154198, “Chemical genetics of Plasmodium falciparum” (Nature, 2010).

Tests used:
Plasmodium falciparum [1] = experiment: ST_JUDE: Plasmodium falciparum K1 EC50 (uM) as measured by SYBR green dye; assay type: functional, organism-based
Plasmodium falciparum [2] = experiment: ST_JUDE: Plasmodium falciparum 3D7 EC50 (uM) as measured by SYBR green dye; assay type: functional, organism-based

Compound `CCN1CCN(c2cc(C)c3cc(NC(=O)/C=C/c4ccccc4OC(C)C)ccc3n2)CC1` has an EC50 (Plasmodium falciparum [1]) of 2.98 µM and an EC50 (Plasmodium falciparum [2]) of 1.06 µM.
With `Oc1c(C(Nc2ccccn2)c2cccc(Cl)c2Cl)ccc2cccnc12` (stereo unspecified) the EC50 (Plasmodium falciparum [1]) was 2.44 µM and the EC50 (Plasmodium falciparum [2]) was 1.77 µM.
In the case of `CCCC(=O)NC(c1cccc([N+](=O)[O-])c1)c1ccc2cccnc2c1O` (stereo unspecified), the EC50 (Plasmodium falciparum [1]) is reported as 2.48 µM and the EC50 (Plasmodium falciparum [2]) is reported as 2.88 µM.
In the case of `Oc1ccccc1/C=N\c1ccc(-c2nc3cc(-c4ccc5[nH]c(-c6ccc(/N=C\c7ccccc7O)cc6)nc5c4)ccc3[nH]2)cc1`, the EC50 (Plasmodium falciparum [1]) is reported as 0.151 µM and the EC50 (Plasmodium falciparum [2]) is reported as 0.207 µM.
With `CCC1(C)CC(CCNCc2ccc(F)cc2)(c2ccc(C)cc2)CCO1` (stereo unspecified) the EC50 (Plasmodium falciparum [1]) was 0.974 µM and the EC50 (Plasmodium falciparum [2]) was 1.11 µM.
`Cc1ccc(C)c(C(C)NC(=S)Nc2ccc([N+](=O)[O-])cc2)c1` (stereo unspecified) was tested, and the EC50 (Plasmodium falciparum [1]) was 3.36 µM and the EC50 (Plasmodium falciparum [2]) was > 15 µM.
In the case of `CC(=O)c1c(C(C)=O)c(C)n(Cc2ccc(Cl)cc2)c1C`, the EC50 (Plasmodium falciparum [1]) is reported as 6.63 µM and the EC50 (Plasmodium falciparum [2]) is reported as > 15 µM.
In the case of `COc1cc(SC)ccc1C(=O)N1CCCC(C)C1` (stereo unspecified), the EC50 (Plasmodium falciparum [1]) is reported as > 15 µM and the EC50 (Plasmodium falciparum [2]) is reported as 9.81 µM.
Work on `O=[N+]([O-])c1ccc(O)c(-c2cc(C(F)(F)F)nc(-c3ccccc3)n2)c1` yielded an EC50 (Plasmodium falciparum [1]) of 3.25 µM and an EC50 (Plasmodium falciparum [2]) of 1.75 µM.
In the case of `CCCCCN1COc2ccc3c4c(c(=O)oc3c2C1)CCCC4`, the EC50 (Plasmodium falciparum [1]) is reported as 0.822 µM and the EC50 (Plasmodium falciparum [2]) is reported as 1.69 µM.
With `CCc1c(C)nc(-n2nc(C)cc2NC(=O)c2ccc(C(C)(C)C)cc2)nc1O` the EC50 (Plasmodium falciparum [1]) was > 15 µM and the EC50 (Plasmodium falciparum [2]) was > 15 µM.
For `Cc1ccc(/C=C2\Oc3c(ccc(O)c3CN3CCCCC3)C2=O)cc1`, the EC50 (Plasmodium falciparum [1]) was 0.28 µM and the EC50 (Plasmodium falciparum [2]) was 2.89 µM.
With `Brc1ccc(C2=CC(c3ccccc3)n3ncnc3N2)cc1` (stereo unspecified) the EC50 (Plasmodium falciparum [1]) was > 15 µM and the EC50 (Plasmodium falciparum [2]) was > 15 µM.
`CCN(CC)c1cc(C)c2cc(NC(=O)c3ccc(F)cc3)ccc2n1` was tested, and the EC50 (Plasmodium falciparum [1]) was > 15 µM and the EC50 (Plasmodium falciparum [2]) was > 15 µM.
In the case of `CCCCCCc1cc(O)c2c(C)cc(=O)oc2c1`, the EC50 (Plasmodium falciparum [1]) is reported as 4.15 µM and the EC50 (Plasmodium falciparum [2]) is reported as > 15 µM.
`CCCc1cc(O)nc(-n2nc(C)cc2NC(=O)c2ccc(C)cc2)n1` was tested, and the EC50 (Plasmodium falciparum [1]) was > 15 µM and the EC50 (Plasmodium falciparum [2]) was > 15 µM.
With `CSc1nc(N)c2c(n1)N=C1CC(C)(C)CC(O)=C1C2c1cccs1` (stereo unspecified) the EC50 (Plasmodium falciparum [1]) was > 15 µM and the EC50 (Plasmodium falciparum [2]) was > 15 µM.
With `COc1cc(CNc2cc(Cl)ccc2C)cc(I)c1OC` the EC50 (Plasmodium falciparum [1]) was 3.17 µM and the EC50 (Plasmodium falciparum [2]) was > 15 µM.
For `Cc1cccc(NC(c2ccc(F)cc2)c2ccc3cccnc3c2O)n1` (stereo unspecified), the EC50 (Plasmodium falciparum [1]) was 4.17 µM and the EC50 (Plasmodium falciparum [2]) was 1.51 µM.
`COC(=O)C1C(=O)C2=C(CC1C)NC(=O)CC2c1ccc([N+](=O)[O-])cc1` (stereo unspecified) was tested, and the EC50 (Plasmodium falciparum [1]) was 1.66 µM and the EC50 (Plasmodium falciparum [2]) was 3.01 µM.
With `CCO/C(O)=C1\C(CC)=NC2=C(C(=O)CC(C)(C)C2)C1c1ccc(Cl)cc1Cl` (stereo unspecified) the EC50 (Plasmodium falciparum [1]) was 1.22 µM and the EC50 (Plasmodium falciparum [2]) was 1.33 µM.
In the case of `Cc1ccc(-c2nc(C(=O)N(C)Cc3cccnc3)cs2)cc1F`, the EC50 (Plasmodium falciparum [1]) is reported as 5.12 µM and the EC50 (Plasmodium falciparum [2]) is reported as 4.36 µM.
In the case of `CCOC(=O)c1c(CNCCN(CC)CC)n(C)c2cc(Br)c(O)cc12`, the EC50 (Plasmodium falciparum [1]) is reported as 4.87 µM and the EC50 (Plasmodium falciparum [2]) is reported as 2.89 µM.
`CN1CCN(c2ccc(-c3cccc(NC(=O)c4cccc(F)c4)c3)nn2)CC1` was tested, and the EC50 (Plasmodium falciparum [1]) was > 15 µM and the EC50 (Plasmodium falciparum [2]) was > 15 µM.
In the case of `Cc1ccc(CNC(=O)/C=C/c2ccc([N+](=O)[O-])cc2)cc1`, the EC50 (Plasmodium falciparum [1]) is reported as > 15 µM and the EC50 (Plasmodium falciparum [2]) is reported as > 15 µM.
`CC(C)CN1C(=O)c2ccccc2C(C(=O)Nc2ccc(Cl)cn2)C1c1cccs1` (stereo unspecified) gave an EC50 (Plasmodium falciparum [1]) of 4.78 µM and an EC50 (Plasmodium falciparum [2]) of 3.44 µM.
For `COc1ccc(CCN2C(=O)c3[nH]nc(-c4ccccc4O)c3C2c2ccc(F)cc2)cc1` (stereo unspecified), the EC50 (Plasmodium falciparum [1]) was > 15 µM and the EC50 (Plasmodium falciparum [2]) was > 15 µM.
For `Oc1ccccc1Nc1nc(-c2cccnc2)nc2ccccc12`, the EC50 (Plasmodium falciparum [1]) was 2.1 µM and the EC50 (Plasmodium falciparum [2]) was > 15 µM.
For `OCCC1CN(Cc2c(F)cccc2F)CCN1Cc1ccc(F)cc1` (stereo unspecified), the EC50 (Plasmodium falciparum [1]) was > 15 µM and the EC50 (Plasmodium falciparum [2]) was > 15 µM.
With `Cc1cccc2sc(NNC(=O)c3ccc(S(=O)(=O)N4CCCCC4C)cc3)nc12` (stereo unspecified) the EC50 (Plasmodium falciparum [1]) was > 15 µM and the EC50 (Plasmodium falciparum [2]) was > 15 µM.
`Cc1ccc(Cl)cc1NC(=O)c1c(-c2c(Cl)cccc2Cl)noc1C` gave an EC50 (Plasmodium falciparum [1]) of 8.12 µM and an EC50 (Plasmodium falciparum [2]) of 0.481 µM.
`CCOc1cccc(CNC2CC(C)(C)Cc3c2cnn3-c2ccc(C)cc2)c1O` (stereo unspecified) showed an EC50 (Plasmodium falciparum [1]) of 0.795 µM and an EC50 (Plasmodium falciparum [2]) of 3.15 µM.
For `CCCCn1c(=O)c2c(nc3n(-c4ccc(C)c(Cl)c4)c(C)cn23)n(C)c1=O`, the EC50 (Plasmodium falciparum [1]) was > 15 µM and the EC50 (Plasmodium falciparum [2]) was > 15 µM.
Work on `Cc1ccc(-n2cc(CN3CCCC(C(N)=O)C3)c(-c3cccc(C)c3)n2)cc1` (stereo unspecified) yielded an EC50 (Plasmodium falciparum [1]) of 4.22 µM and an EC50 (Plasmodium falciparum [2]) of 5.24 µM.
For `Cc1ccc2sc(NNC(=O)c3ccc(S(=O)(=O)N(C)C)cc3)nc2c1C`, the EC50 (Plasmodium falciparum [1]) was 3.82 µM and the EC50 (Plasmodium falciparum [2]) was > 15 µM.
`Cc1ccc(/C=N/NC(=O)COc2ccc(Cl)cc2Cl)c(O)c1` was tested, and the EC50 (Plasmodium falciparum [1]) was > 15 µM and the EC50 (Plasmodium falciparum [2]) was > 15 µM.
`CCN(CC)CCNC(=O)c1c(C)oc2c1C(=O)c1ccccc1C2=O` gave an EC50 (Plasmodium falciparum [1]) of 0.191 µM and an EC50 (Plasmodium falciparum [2]) of 0.256 µM.
In the case of `COc1nc(-c2ccncc2)nc2ccccc12`, the EC50 (Plasmodium falciparum [1]) is reported as > 15 µM and the EC50 (Plasmodium falciparum [2]) is reported as > 15 µM.
For `CCOc1ccc(C(=O)Nc2cc(C)nn2-c2nc(C)c(CC)c(O)n2)cc1OCC`, the EC50 (Plasmodium falciparum [1]) was > 15 µM and the EC50 (Plasmodium falciparum [2]) was > 15 µM.
Work on `O=C1CC(c2ccc(C(F)(F)F)cc2)C2=C(CC(c3ccccc3Cl)CC2=O)N1` (stereo unspecified) yielded an EC50 (Plasmodium falciparum [1]) of 0.828 µM and an EC50 (Plasmodium falciparum [2]) of 1.66 µM.
In the case of `CSc1cccc(NC(=O)Cn2c(=O)sc3ccccc32)c1`, the EC50 (Plasmodium falciparum [1]) is reported as > 15 µM and the EC50 (Plasmodium falciparum [2]) is reported as > 15 µM.
For `CCCCc1ccc(NS(=O)(=O)c2cc3c4c(c2)CCN4C(=O)CC3)cc1`, the EC50 (Plasmodium falciparum [1]) was > 15 µM and the EC50 (Plasmodium falciparum [2]) was > 15 µM.
`CCn1c2c(c(=N)c3c1CCC3)CCCC2` showed an EC50 (Plasmodium falciparum [1]) of 6.57 µM and an EC50 (Plasmodium falciparum [2]) of 3.12 µM.
`CCCC(=O)NC(c1ccccc1Cl)c1cc(Cl)c2cccnc2c1O` (stereo unspecified) was tested, and the EC50 (Plasmodium falciparum [1]) was > 15 µM and the EC50 (Plasmodium falciparum [2]) was > 15 µM.
With `O=C1CC(c2ccc(Cl)c(Cl)c2)C2=C(CC(c3ccc(F)cc3)CC2=O)N1` (stereo unspecified) the EC50 (Plasmodium falciparum [1]) was 4.38 µM and the EC50 (Plasmodium falciparum [2]) was > 15 µM.
For `c1cncc(CN2CCN(Cc3cccc4ccccc34)CC2)c1`, the EC50 (Plasmodium falciparum [1]) was > 15 µM and the EC50 (Plasmodium falciparum [2]) was > 15 µM.
With `COc1ccc(C(NC(=O)c2cccnc2)c2cc(Cl)c3cccnc3c2O)cc1` (stereo unspecified) the EC50 (Plasmodium falciparum [1]) was 1.5 µM and the EC50 (Plasmodium falciparum [2]) was 4.76 µM.
`Cc1ccc(Nc2nc(NCCO)c3ccccc3n2)cc1C` showed an EC50 (Plasmodium falciparum [1]) of 2.27 µM and an EC50 (Plasmodium falciparum [2]) of 0.843 µM.
In the case of `CC(C)(C)c1ccc(-c2nc(-c3ccncc3)no2)cc1`, the EC50 (Plasmodium falciparum [1]) is reported as > 15 µM and the EC50 (Plasmodium falciparum [2]) is reported as > 15 µM.
With `Cc1cccc(C2Sc3ccccc3N=C3C2=C(O)c2ccccc23)c1` (stereo unspecified) the EC50 (Plasmodium falciparum [1]) was 1.77 µM and the EC50 (Plasmodium falciparum [2]) was 1.89 µM.
In the case of `CCCCc1ccc2nc(C)c(CN(C)C3CCN(C)CC3)c(O)c2c1`, the EC50 (Plasmodium falciparum [1]) is reported as > 15 µM and the EC50 (Plasmodium falciparum [2]) is reported as > 15 µM.
In the case of `CC(=O)NCC(=O)NC1CC(C)(C)Cc2c1cnn2-c1ccccc1` (stereo unspecified), the EC50 (Plasmodium falciparum [1]) is reported as > 15 µM and the EC50 (Plasmodium falciparum [2]) is reported as > 15 µM.
Work on `Cc1ccccc1-n1c(N)c(C#N)c2nc3ccccc3nc21` yielded an EC50 (Plasmodium falciparum [1]) of 4.25 µM and an EC50 (Plasmodium falciparum [2]) of 1.64 µM.
In the case of `O=[N+]([O-])c1ccccc1C(Nc1ccccn1)c1cc(Cl)c2cccnc2c1O` (stereo unspecified), the EC50 (Plasmodium falciparum [1]) is reported as > 15 µM and the EC50 (Plasmodium falciparum [2]) is reported as 8.67 µM.
For `Cc1ccc(N2C(=O)C(Cl)=C(Nc3ccccc3C)C2=O)c(C)c1`, the EC50 (Plasmodium falciparum [1]) was > 15 µM and the EC50 (Plasmodium falciparum [2]) was > 15 µM.
With `Cc1cc(N(C)C)nc(Nc2ccc(NS(=O)(=O)c3cc(C(C)C)ccc3C)cc2)n1` the EC50 (Plasmodium falciparum [1]) was 3.35 µM and the EC50 (Plasmodium falciparum [2]) was 1.55 µM.
With `Cc1cccc(NC(c2ccccc2C)c2ccc3ccc(C)nc3c2O)n1` (stereo unspecified) the EC50 (Plasmodium falciparum [1]) was 5.17 µM and the EC50 (Plasmodium falciparum [2]) was 7.03 µM.
`Cc1c(C(=O)Nc2cc(Cl)ccc2Cl)cccc1[N+](=O)[O-]` was tested, and the EC50 (Plasmodium falciparum [1]) was > 15 µM and the EC50 (Plasmodium falciparum [2]) was > 15 µM.
In the case of `Cc1c(Cl)cccc1NC(=O)c1ccccc1[N+](=O)[O-]`, the EC50 (Plasmodium falciparum [1]) is reported as > 15 µM and the EC50 (Plasmodium falciparum [2]) is reported as > 15 µM.
With `O=C(CSc1nnc(-c2ccncc2)o1)Nc1ccccc1C(F)(F)F` the EC50 (Plasmodium falciparum [1]) was > 15 µM and the EC50 (Plasmodium falciparum [2]) was > 15 µM.
For `COC(=O)C1=CN(Cc2ccc(C)cc2)C=C(C(=O)OC)C1c1cc(OC)c(OC)c(OC)c1`, the EC50 (Plasmodium falciparum [1]) was 5.49 µM and the EC50 (Plasmodium falciparum [2]) was 4.49 µM.
With `CCc1cccc2c(C#N)cn(Cc3ccc(Br)cc3)c12` the EC50 (Plasmodium falciparum [1]) was 4 µM and the EC50 (Plasmodium falciparum [2]) was 3.67 µM.
`COc1ccc(OC)c2sc(N(Cc3cccnc3)C(=O)c3cccc(F)c3)nc12` gave an EC50 (Plasmodium falciparum [1]) of 4.97 µM and an EC50 (Plasmodium falciparum [2]) of 4.1 µM.
